According to patent publication EP3057951B1, “METHYLENE LINKED QUINOLINYL MODULATORS OF ROR-GAMMA-T” (Janssen Pharmaceutica NV, priority 2013, dated 2015):
Several values for one entry are separate records, joined by “and”; a condition that tells them apart may be missing. Equal values may be shown once. Where a name gives a salt, the structure may show the parent alone.

How the values were obtained:
[1] = target: T1, wild type human RORγt ligand binding domain (RORyt LBD) (Homo sapiens, UniProt P51449); assay: RORγt ThermoFluor assay (thermal shift, binding affinity KD)
T1 construct: His-tag (N); TurboTEV protease cleavage site (ENLYFQG) (N); made in house; host or cells: E. coli (pHIS1, modified pET vector)
T1 sequence (P51449 258-518): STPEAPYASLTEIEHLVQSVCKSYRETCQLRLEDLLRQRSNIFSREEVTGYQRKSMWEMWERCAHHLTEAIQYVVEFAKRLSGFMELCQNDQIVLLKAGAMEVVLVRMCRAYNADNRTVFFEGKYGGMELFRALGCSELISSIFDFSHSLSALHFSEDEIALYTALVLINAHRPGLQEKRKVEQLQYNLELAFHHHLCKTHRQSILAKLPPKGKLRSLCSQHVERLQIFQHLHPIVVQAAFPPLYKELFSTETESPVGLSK

[2] = target: T2, wild type human RORγt LBD (Homo sapiens, UniProt P51449); assay: RORγt (LBD) Reporter Assay (GAL4-luciferase, HEK293T cells); assay type: cell-based; conditions: for IC50: HEK293T cells, value after the comma with ∼, > or < could not be included in the average; for inhibition at 6 µM: HEK-293T, read-out: RORγt (LBD) Reporter Assay, % inhibition @ 6 µM, 6 µM compound concentration
T2 construct: expressed in transfected cells; host or cells: HEK293T
T2 sequence (P51449 258-518): T1 sequence (P51449 258-518)

Compound | Kd [1] [nM] | RORγt (LBD) Reporter Assay, % inhibition @ 6 µM ([2]; 6 µM compound concentration) [%] | IC50 [2] | inhibition at 6 µM [2] [%]
3-((4-Chloro-6-((4-chlorophenyl)(hydroxy)(1-methyl-1H-imidazol-5-yl)methyl)-2-methoxyquinolin-3-yl)methyl)benzonitrile•TFA [Example 70] | 120 | 94 | 430 nM | 
COc1nc2ccc(C(O)(c3ccc(Cl)cc3)c3cncn3C)cc2c(C#N)c1Cc1ccc(C(F)(F)F)cc1 (racemic) [Example 55a, 6-((4-Chlorophenyl)(hydroxy)(1-methyl-1H-imidazol-5-yl)methyl)-2-methoxy-3-(4-(trifluoromethyl)benzyl)quinoline-4-carbonitrile] | 11 |  | 32 nM | 104
COc1nc2ccc(C(O)(c3ccc(C)nc3C)c3cnc(C)n3C)cc2c(Cl)c1Cc1ccc(C(F)(F)F)cc1 (racemic) [Example 57a, (4-Chloro-2-methoxy-3-(4-(trifluoromethyl)benzyl)quinolin-6-yl)(1,2-dimethyl-1H-imidazol-5-yl)(2,6-dimethylpyridin-3-yl)methanol] | 0.03 |  | 22 nM | 100
COc1nc2ccc(C(O)(c3cnnn3C)c3cnc(C)n3C)cc2c(Cl)c1Cc1ccc(F)cc1 (racemic) [Example 65a] | 0.19 |  | 9.9 nM | 74
COc1nc2ccc(C(O)(c3cnnn3C)c3cnc(C)n3C)cc2c(C#N)c1Cc1ccc(F)cc1 (racemic) [Example 66a, 6-((1,2-Dimethyl-1H-imidazol-5-yl)(hydroxy)(1-methyl-1H-1,2,3-triazol-5-yl)methyl)-3-(4-fluorobenzyl)-2-methoxyquinoline4-carbonitrile] | 0.59 |  | 8.2 nM | 90
COc1nc2ccc(C(N)(c3ccc(C(F)(F)F)nc3)c3cncn3C)cc2c(Cl)c1Cc1cc2ccccc2s1 (racemic) [Example 71a, (3-(Benzo[b]thiophen-2-ylmethyl)4-chloro-2-methoxyquinolin-6-yl)(1-methyl-1H-imidazol-5-yl)(6-(trifluoromethyl)pyridin-3-yl)methanamine] | 61 |  | 210 nM | 98
CC(=O)N1CCC(C(O)(c2ccccc2)c2ccc3nc(Cl)c(Cc4cncnc4)c(OC(F)F)c3c2)CC1 (racemic) [Example 73a, 1-(4-((2-Chloro-4-(difluoromethoxy)-3-(pyrimidin-5-ylmethyl)quinolin-6-yl)(hydroxy)(phenyl)methyl)piperidin-1-yl)ethanone] | 590 |  | > 6000 nM | 45
COc1nc2ccc(C(O)(c3cnnn3C)C3CCN(C(C)=O)CC3)cc2c(Cl)c1Cc1ccc(C(F)(F)F)cc1 (racemic) [Example 74a, 1-(4-((4-Chloro-2-methoxy-3-(4-(trifluoromethyl)benzyl)quinolin-6-yl)(hydroxy)(1-methyl-1H-1,2,3-triazol-5-yl)methyl)piperidin-1-yl)ethanone] | 3.1 |  | ~10 nM | 98
COc1nc2ccc(C(O)(c3ccc(C)nc3C)C3CN(C(C)=O)C3)cc2c(Cl)c1Cc1ccc(C(F)(F)F)cc1 (racemic) [Example 87a, 1-(3-((4-Chloro-2-methoxy-3-(4-(trifluoromethyl)benzyl)quinolin-6-yl)(2,6-dimethylpyridin-3-yl)(hydroxy)methyl)azetidin-1-yl)ethanone] | 1.8 |  | 6.8 nM | 100
COc1nc2ccc(C(O)(c3ccc(C)nc3C)c3cncn3C)cc2c(Cl)c1Cc1ccc(C(F)(F)F)cc1 (racemic) [Example 88a, (4-Chloro-2-methoxy-3-(4-(trifluoromethyl)benzyl)quinolin-6-yl)(2,6-dimethylpyridin-3-yl)(1-methyl-1H-imidazol-5-yl)methanol] | 0.3 |  | 4.2 nM and ~20 nM | 98
COc1nc2ccc(C(O)(c3cncn3C)c3cnnn3C)cc2c(Cl)c1Cc1ccc(C(F)(F)F)cc1 (racemic) [Example 89a, (4-Chloro-2-methoxy-3-(4-(trifluoromethyl)benzyl)quinolin-6-yl)(1-methyl-1H-1,2,3-triazol-5-yl)(1-methyl-1H-imidazol-5-yl)methanol] | 0.29 |  | 4.8 nM | 98
COc1nc2ccc(C(O)(c3sc(C)nc3C)c3cnnn3C)cc2cc1Cc1ccc(C(F)(F)F)cc1 (racemic) [Example 92a, (2,4-Dimethylthiazol-5-yl)(2-methoxy-3-(4-(trifluoromethyl)benzyl)quinolin-6-yl)(1-methyl-1H-1,2,3-triazol-5-yl)methanol] | 92 |  | 79 nM | 101
COc1c(Cc2ccccc2)c(C(F)(F)F)nc2ccc(C(O)(c3ccccn3)c3cncn3C)cc12 (racemic) [Example 98a, (3-Benzyl-4-methoxy-2-(trifluoromethyl)quinolin-6-yl)(1-methyl-1H-imidazol-5-yl)(pyridin-2-yl)methanol•TFA] | 590 |  | 830 nM | 101
Cc1nc2ccc(C(O)(c3cnnn3C)C3CN(C(=O)OC(C)(C)C)C3)cc2c(Cl)c1Cc1ccc(C(F)(F)F)cc1 (stereo not shown) [Example 31, tert-Butyl 3-((4-chloro-2-methyl-3-(4-(trifluoromethyl)benzyl)quinolin-6-yl)(hydroxy)(1-methyl-1H-1,2,3-triazol-5-yl)methyl)azetidine-1-carboxylate] | 0.79 |  |  | 
CC(=O)N1CC(C(O)(c2ccc3nc(C)c(Cc4ccc(C(F)(F)F)cc4)c(Cl)c3c2)c2cnnn2C)C1 (stereo not shown) [Example 32a, 1-(3-((4-Chloro-2-methyl-3-(4-(trifluoromethyl)benzyl)quinolin-6-yl)(hydroxy)(1-methyl-1H-1,2,3-triazol-5-yl)methyl)azetidin-1-yl)ethanone] | 1.1 |  |  | 
CCc1nc2ccc(C(O)(c3cnnn3C)C3CCOCC3)cc2c(Cl)c1Cc1ccc(C(F)(F)F)cc1 (stereo not shown) [Example 33a, (4-Chloro-2-ethyl-3-(4-(trifluoromethyl)benzyl)quinolin-6-yl)(1-methyl-1H-1,2,3-triazol-5-yl)(tetrahydro-2H-pyran-4-yl)methanol] | 0.05 |  |  | 
CCc1nc2ccc(C(O)(c3cnc(C)n3C)C3CCOCC3)cc2c(Cl)c1Cc1ccc(C(F)(F)F)cc1 (stereo not shown) [Example 34a, (4-Chloro-2-ethyl-3-(4-(trifluoromethyl)benzyl)quinolin-6-yl)(1,2-dimethyl-1H-imidazol-5-yl)(tetrahydro-2H-pyran-4-yl)methanol] | 0.03 |  |  | 
CCc1nc2ccc(C(O)(c3ccccc3)C3CCN(C(C)=O)CC3)cc2c(Cl)c1Cc1ccc(-n2cccn2)cc1 (stereo not shown) [Example 35, 1-(4-((3-(4-(1H-Pyrazol-1-yl)benzyl)4-chloro-2-ethylquinolin-6-yl)(hydroxy)(phenyl)methyl)piperidin-1-yl)ethanone] | 3 |  |  | 
COc1nc2ccc(C(O)(c3ccc(C)nc3C)c3cnc(C)n3C)cc2c(Cl)c1Cc1ccc(C(F)(F)F)nc1 (stereo not shown) [Example 42a, (4-Chloro-2-methoxy-3-((6-(trifluoromethyl)pyridin-3-yl)methyl)quinolin-6-yl)(1,2-dimethyl-1H-imidazol-5-yl)(2,6-dimethylpyridin-3-yl)methanol] | 0.38 |  |  | 
COc1nc2ccc(C(O)(c3cnc(C)n3C)c3cnc(C)n3C)cc2c(Cl)c1Cc1ccc(C(F)(F)F)nc1 [Example 45, (4-Chloro-2-methoxy-3-((6-(trifluoromethyl)pyridin-3-yl)methyl)quinolin-6-yl)bis(1,2-dimethyl-1H-imidazol-5-yl)methanol] | 0.21 |  |  | 
COc1nc2ccc(C(O)(c3cnc(C)n3C)c3cnc(C)n3C)cc2c(Cl)c1Cc1ccc(F)cc1 [Example 67, (4-Chloro-3-(4-fluorobenzyl)-2-methoxyquinolin-6-yl)bis(1,2-dimethyl-1H-imidazol-5-yl)methanol] | 0.1 |  |  | 
COc1nc2ccc(C(O)(c3cnc(C)n3C)c3cnc(C)n3C)cc2c(Cl)c1Cc1ccc(OC(F)(F)F)cc1 [Example 76, (4-chloro-2-methoxy-3-(4-(trifluoromethoxy)benzyl)quinolin-6-yl)bis(1,2-dimethyl-1H-imidazol-5-yl)methanol] | 0.03 |  |  | 
COc1nc2ccc(C(O)(c3cnnn3C)C3CN(C(N)=O)C3)cc2c(Cl)c1Cc1ccc(C(F)(F)F)cc1 (stereo not shown) [Example 91, 3-((4-Chloro-2-methoxy-3-(4-(trifluoromethyl)benzyl)quinolin-6-yl)(hydroxy)(1-methyl-1H-1,2,3-triazol-5-yl)methyl)azetidine-1-carboxamide] | 0.2 |  |  | 
COc1nc2ccc(C(O)(c3c(C)noc3C)c3cnnn3C)cc2c(Cl)c1Cc1ccc(C(F)(F)F)cc1 (stereo not shown) [Example 93, (4-Chloro-2-methoxy-3-(4-(trifluoromethyl)benzyl)quinolin-6-yl)(3,5-dimethylisoxazol-4-yl)(1-methyl-1H-1,2,3-triazol-5-yl)methanol] | 0.6 |  |  | 
COc1nc2ccc(C(O)(c3c(C)noc3C)c3cnnn3C)cc2c(C#N)c1Cc1ccc(C(F)(F)F)cc1 (stereo not shown) [Example 94, 6-((3,5-Dimethylisoxazol-4-yl)(hydroxy)(1-methyl-1H-1,2,3-triazol-5-yl)methyl)-2-methoxy-3-(4-(trifluoromethyl)benzyl)quinoline-4-carbonitrile] | 0.48 |  |  | 
COCCN(C)c1nc2ccc(C(O)(c3ccc(C(F)(F)F)nc3)c3cncn3C)cc2c(Cl)c1Cc1ccc(-n2cccn2)cc1 (stereo not shown) [Example 128, {4-Chloro-2-[(2-methoxyethyl)(methyl)amino]-3-[4-(1H-pyrazol-1-yl)benzyl]quinolin-6-yl}(1-methyl-1H-imidazol-5-yl)[6-(trifluoromethyl)pyridin-3-yl]methanol] | 97 |  |  | 
